Patent US20250332266A1, “COMPOUNDS FOR THE DEGRADATION OF EGFR KINASE” (BeiGene Switzerland GmbH, priority 2022, published 2025)
Where two headings read alike, the source gives them in different places.

What was measured:
EGFR L858R (BaF3-L858R) = target: T1, EGFR L858R (BaF3-L858R) (Homo sapiens, UniProt P00533, L858R); assay: EGFR degradation, HTRF total-EGFR assay, BaF3-L858R cells; assay type: cell-based; settings: 16 h treatment
T1 construct: host or cells: BaF3
Method: BaF3-L858R (abbv. L858R) cell were purchased from Kangyuan Bochuang Biotechnology (Beijing) Co., Ltd.
(§1) H1975-#8 and BaF3-L858R cells are treated with compounds diluted in 0.1% DMSO cell culture medium on day 2, incubate for 16 h, 37° C., 5% CO2. the final concentration of compounds in all assay starts with 10 uM, 5-fold dilution, total 8 doses were included.
(§2) Total-EGFR cellular kit (64NG1PEH) were used for evaluating EGFR degradation.
(§3) After 16 h treatment, for H1975-#8 cells, add 100 μL HTRF 1× lysis buffer to each well; for BaF3-L858R cells, add 20 μL 4× lysis buffer to each well; seal the plate and incubate 1 hour at room temperature on a plate shaker; Once the cells are lysed, 16 μL of cell lysate are transferred to a PE 384-well HTRF detection plate; 4 μL of pre-mixed HTRF antibodies are added to each well; cover the plate with a plate sealer, spin 1000 rpm for 1 min, incubate overnight at room temperature; read on BMG PheraStar with HTRF protocol (337 nm-665 nm-620 nm).
(§4) The inhibition (degradation) percentage of the compound was calculated by the following equation:
(§5) Inhibition percentage of Compound=100−100×(Signal−low control)/(High control−low control), wherein signal=each test compound group
(§6) High control=Cell group with added DMSO and without compound, indicating microplate readings without EGFR degradation.
(§7) Imax (Dmax) is the maximum percentage of inhibition (degradation).
(§8) The IC50 (DC50) value of a compound can be obtained by fitting the following equation
(§9) Wherein, X and Y are known values, and IC50, Hillslope, Top and Bottom are the parameters obtained by fitting with software. Y is the inhibition percentage (calculated from the equation), X is the concentration of the compound; IC50 is the concentration of the compound when the 50% inhibition is reached. The smaller the IC50 value is, the stronger the inhibitory ability of the compound is. Vice versa, the higher the IC50 value is, the weaker the ability the inhibitory ability of the compound is; Hillslope represents the slope of the fitted curve, generally around 1*; Bottom represents the minimum value of the curve obtained by data fitting, which is generally 0%±20%; Top represents the maximum value of the curve obtained by data fitting, which is generally 100%±20%. The experimental data were fitted by calculating and analyzing with Dotmatics data analysis software.

[1] = target: T2, EGFR L858R/C797S (H1975-clone #8) (Homo sapiens, UniProt P00533, C797S/L858R); assay: EGFR degradation, HTRF total-EGFR assay, H1975-clone #8 (L858R/C797S); assay type: cell-based; settings: 16 h treatment
T2 construct: expressed in transfected cells; host or cells: H1975 (clone #8), lentiviral transduction, endogenous EGFR knocked out
T2 sequence (P00533 25-1210 C797S/L858R): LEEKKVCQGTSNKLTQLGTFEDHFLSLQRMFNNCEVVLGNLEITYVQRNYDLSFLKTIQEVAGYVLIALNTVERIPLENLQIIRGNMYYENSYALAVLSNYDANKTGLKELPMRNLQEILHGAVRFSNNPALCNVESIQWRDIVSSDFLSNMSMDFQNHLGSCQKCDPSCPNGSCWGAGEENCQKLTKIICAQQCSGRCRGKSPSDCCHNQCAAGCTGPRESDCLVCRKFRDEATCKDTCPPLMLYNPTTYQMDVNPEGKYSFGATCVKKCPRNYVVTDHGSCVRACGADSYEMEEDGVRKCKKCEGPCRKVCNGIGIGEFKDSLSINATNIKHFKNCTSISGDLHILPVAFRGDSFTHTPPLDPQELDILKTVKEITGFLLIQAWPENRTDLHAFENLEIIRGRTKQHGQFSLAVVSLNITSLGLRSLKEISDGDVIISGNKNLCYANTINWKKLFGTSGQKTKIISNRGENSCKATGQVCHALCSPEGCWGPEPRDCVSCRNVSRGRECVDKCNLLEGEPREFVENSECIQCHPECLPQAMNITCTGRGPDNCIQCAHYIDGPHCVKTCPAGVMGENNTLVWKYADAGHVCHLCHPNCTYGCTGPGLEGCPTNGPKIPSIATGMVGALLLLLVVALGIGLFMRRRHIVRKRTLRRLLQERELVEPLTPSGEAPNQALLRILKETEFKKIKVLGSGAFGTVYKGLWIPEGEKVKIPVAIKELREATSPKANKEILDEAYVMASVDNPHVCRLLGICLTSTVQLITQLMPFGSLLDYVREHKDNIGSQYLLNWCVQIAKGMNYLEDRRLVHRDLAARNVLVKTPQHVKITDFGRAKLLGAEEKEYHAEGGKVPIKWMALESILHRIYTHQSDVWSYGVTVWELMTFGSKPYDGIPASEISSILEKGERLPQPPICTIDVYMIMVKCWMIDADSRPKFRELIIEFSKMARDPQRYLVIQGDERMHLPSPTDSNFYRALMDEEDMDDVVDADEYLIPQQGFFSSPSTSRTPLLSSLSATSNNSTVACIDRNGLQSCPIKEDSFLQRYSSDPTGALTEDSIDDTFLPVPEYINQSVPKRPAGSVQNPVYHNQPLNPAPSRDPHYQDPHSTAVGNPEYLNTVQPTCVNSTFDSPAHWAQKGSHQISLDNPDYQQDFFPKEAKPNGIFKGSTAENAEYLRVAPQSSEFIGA
Method: H1975-clone #8 (L858R/C797S): EGFR-L858R/C797S were stably expressed in H1975 cell lines by lentivirus-mediated over-expression, respectively. The EGFR over-expressed cells then underwent knockout, in which the EGFR targeting sgRNA was designed to only target the endogenous EGFR copies and preserve the exogenous EGFR copies. Followed by the knockout, the edited H1975 cells were seeded in 96 well plates at the concentration of 1 cell/well, cultured for about 2 weeks to allow single clones formation. The formed clones were screened by DNA sequencing and whole exon sequencing analysis for the desired edition. H1975-clone #8 were finally confirmed as homozygous L858R/C797S EGFR clones.
as §1, §2, §3, §4, §5, §6, §7, §8, §9

[2] = amide bond, 15-membered ring, 25.0 °C

T1 sequence (P00533 25-1210 L858R): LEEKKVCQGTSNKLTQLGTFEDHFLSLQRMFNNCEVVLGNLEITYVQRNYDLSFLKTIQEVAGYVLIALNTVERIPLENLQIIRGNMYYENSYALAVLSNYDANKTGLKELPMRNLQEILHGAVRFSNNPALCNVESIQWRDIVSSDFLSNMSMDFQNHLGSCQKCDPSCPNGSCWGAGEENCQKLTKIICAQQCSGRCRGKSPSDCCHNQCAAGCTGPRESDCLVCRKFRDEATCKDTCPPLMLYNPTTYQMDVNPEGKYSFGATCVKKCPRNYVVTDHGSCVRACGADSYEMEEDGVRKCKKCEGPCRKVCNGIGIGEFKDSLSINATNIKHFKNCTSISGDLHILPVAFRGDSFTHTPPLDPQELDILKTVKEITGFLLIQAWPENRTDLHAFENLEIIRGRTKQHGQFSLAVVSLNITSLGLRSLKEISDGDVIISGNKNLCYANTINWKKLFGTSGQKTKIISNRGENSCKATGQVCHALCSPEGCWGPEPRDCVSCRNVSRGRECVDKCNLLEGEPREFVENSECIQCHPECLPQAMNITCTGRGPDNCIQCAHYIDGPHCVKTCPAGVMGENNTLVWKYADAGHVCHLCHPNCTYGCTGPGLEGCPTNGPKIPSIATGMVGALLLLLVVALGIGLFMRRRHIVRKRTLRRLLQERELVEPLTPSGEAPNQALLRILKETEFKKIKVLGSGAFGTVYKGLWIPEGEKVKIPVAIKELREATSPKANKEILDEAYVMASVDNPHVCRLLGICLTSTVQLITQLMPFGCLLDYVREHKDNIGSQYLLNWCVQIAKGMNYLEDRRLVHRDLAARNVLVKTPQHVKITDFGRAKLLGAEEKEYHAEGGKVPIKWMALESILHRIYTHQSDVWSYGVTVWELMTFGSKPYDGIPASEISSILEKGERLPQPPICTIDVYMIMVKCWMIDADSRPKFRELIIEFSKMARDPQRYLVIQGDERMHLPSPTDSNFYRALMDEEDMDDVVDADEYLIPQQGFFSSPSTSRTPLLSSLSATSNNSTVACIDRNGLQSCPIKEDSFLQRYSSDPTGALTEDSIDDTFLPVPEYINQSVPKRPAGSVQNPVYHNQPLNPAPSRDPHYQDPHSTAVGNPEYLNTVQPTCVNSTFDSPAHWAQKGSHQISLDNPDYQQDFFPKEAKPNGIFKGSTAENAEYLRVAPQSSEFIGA

| SMILES | DC50 (EGFR L858R (BaF3-L858R)) | Dmax (EGFR L858R (BaF3-L858R)) | DC50 [1] | Dmax [1] | further results |
| --- | --- | --- | --- | --- | --- |
| CCc1nc(C2CCC(=O)NC2=O)ccc1N1CCC(N2CC(N3CCN(c4ccc5c(c4)N4C[C@H]6C[C@@H](COc7c(cnn7C)-c7cc(cc(C)n7)C(=O)/N=C/4N5)C6)CC3)C2)CC1 (some centres unmarked) [Example 149, 3-(5-(4-(3-(4-((7^1s,7^3s,E)-1^1,2^6-dimethyl-3-oxo-5^2,5^3-dihydro-1^1H,5^1H-9-oxa-4-aza-5(2,1)-benzo[d]imidazola-2(2,4)-pyridina-1(4,5)-pyrazola-7(1,3)-cyclobutanacyclononaphane-5^6-yl)piperazin-1-yl)azetidin-1-yl)piperidin-1-yl)-6-ethylpyridin-2-yl)piperidine-2,6-dione] | 16 nM | 71.1% | 3.3 nM | 52.2% | – |
| Cc1cc(C(=O)O)cc(-c2cnn(C)c2OCC2CC(Cn3c(=N)[nH]c4ccc(CN5CCN(C(=O)OC(C)(C)C)CC5)cc43)C2)n1 (centres unmarked) | – | – | – | – | ring closure, isolated yield ([2]; the molecule shown is the open-chain precursor, HATU/DIEA, DMF, 70.0 mM): 50.1% |
| CCc1nc(C2CCC(=O)NC2=O)ccc1N1CCC(N2CCN(c3ccc4c(c3)N3C[C@H]5C[C@@H](COc6c(cnn6C)-c6cc(cc(C)n6)C(=O)/N=C/3N4)C5)CC2)CC1 (some centres unmarked) [Example 140, 3-(5-(4-(4-((7^1s,7^3s,E)-1^1,2^6-dimethyl-3-oxo-5^2,5^3-dihydro-1H,5^1H-9-oxa-4-aza-5(2,1)-benzo[d]imidazola-2(2,4)-pyridina-1(4,5)-pyrazola-7(1,3)-cyclobutanacyclononaphane-5^6-yl)piperazin-1-yl)piperidin-1-yl)-6-ethylpyridin-2-yl)piperidine-2,6-dione] | 37.8 nM | 90.6% | – | – | – |
| Cc1cc2cc(n1)-c1cnn(C)c1OC[C@H]1C[C@@H](CN3/C(=N/C2=O)Nc2ccc(N4C[C@H](C)N(C5CCN(c6ccc(C7CCC(=O)NC7=O)nc6C)CC5)C[C@@H]4C)cc23)C1 (stereo partly drawn) [Example 139, 3-(5-(4-((2S,5S)-4-((7^1s,7^3R,E)-1^1,2^6-dimethyl-3-oxo-5^2,5^3-dihydro-1^1H,5^1H-9-oxa-4-aza-5(2,1)-benzo[d]imidazola-2(2,4)-pyridina-1(4,5)-pyrazola-7(1,3)-cyclobutanacyclononaphane-5^6-yl)-2,5-dimethylpiperazin-1-yl)piperidin-1-yl)-6-methylpyridin-2-yl)piperidine-2,6-dione] | 30.7 nM | 88.9% | – | – | – |
| COC(=O)c1cc(C)nc(-c2cnn(C)c2OCC2CC(Cn3c(=N)[nH]c4ccc(Br)cc43)C2)c1 (centres unmarked) | – | – | – | – | ring closure, isolated yield ([2]; the molecule shown is the open-chain precursor, LiHMDS, THF, 116.0 mM): 74.7% |
| Cc1cc2cc(n1)-c1cnn(C)c1OCC1CC(C1)Cn1c(nc3ccc(N4CCN(C(=O)OC(C)(C)C)CC4=O)cc31)NC2=O | – | – | – | – | ring closure, isolated yield ([2]; from Cc1cc(C(=O)O)cc(-c2cnn(C)c2OCC2CC(Cn3c(N)nc4ccc(N5CCN(C(=O)OC(C)(C)C)CC5=O)cc43)C2)n1, HATU/DIEA, DCM, 34.0 mM): 51.6% |

Further lines, with some results ahead:

| DC50 (EGFR L858R (BaF3-L858R)) | Dmax (EGFR L858R (BaF3-L858R)) | DC50 [1] | Dmax [1] | SMILES | further results |
| --- | --- | --- | --- | --- | --- |
| 11.9 nM | 73.5% | 3.5 nM | 51.9% | Cc1cc2cc(n1)-c1cnn(C)c1OC[C@H]1C[C@@H](CN3/C(=N/C2=O)Nc2ccc(N4CCN(C5CN(CCc6c(C)cc(C7CCC(=O)NC7=O)nc6C)C5)CC4)cc23)C1 (some centres unmarked) [Example 150, 3-(5-(2-(3-(4-((7^1s,7^3s,E)-1^1,2^6-dimethyl-3-oxo-5^2,5^3-dihydro-1^1H,5^1H-9-oxa-4-aza-5(2,1)-benzo[d]imidazola-2(2,4)-pyridina-1(4,5)-pyrazola-7(1,3)-cyclobutanacyclononaphane-5^6-yl)piperazin-1-yl)azetidin-1-yl)ethyl)-4,6-dimethylpyridin-2-yl)piperidine-2,6-dione] | – |
| 8.5 nM | 75.8% | – | – | CCc1cc(C2CCC(=O)NC2=O)ncc1N1CCC(N2CC(N3CCN(c4ccc5c(c4)N4C[C@H]6C[C@@H](COc7c(cnn7C)-c7cc(cc(C)n7)C(=O)/N=C/4N5)C6)CC3)C2)CC1 (some centres unmarked) [Example 143, 3-(5-(4-(3-(4-((7^1s,7^3s,E)-1^1,2^6-dimethyl-3-oxo-5^2,5^3-dihydro-1^1H,5^1H-9-oxa-4-aza-5(2,1)-benzo[d]imidazola-2(2,4)-pyridina-1(4,5)-pyrazola-7(1,3)-cyclobutanacyclononaphane-5^6-yl)piperazin-1-yl)azetidin-1-yl)piperidin-1-yl)-4-ethylpyridin-2-yl)piperidine-2,6-dione] | – |
| 11.9 nM | 85.1% | 0.7 nM | 40.4% | Cc1cc2cc(n1)-c1cnn(C)c1OC[C@H]1C[C@@H](CN3/C(=N/C2=O)Nc2ccc(N4CCN(C5CCN(c6c(C)cc(C7CCC(=O)NC7=O)nc6C)CC5)CC4)cc23)C1 (some centres unmarked) [Example 141, 3-(5-(4-(4-((7^1s,7^3s,E)-1^1,2^6-dimethyl-3-oxo-5^2,5^3-dihydro-1^1H,5^1H-9-oxa-4-aza-5(2,1)-benzo[d]imidazola-2(2,4)-pyridina-1(4,5)-pyrazola-7(1,3)-cyclobutanacyclononaphane-5^6-yl)piperazin-1-yl)piperidin-1-yl)-4,6-dimethylpyridin-2-yl)piperidine-2,6-dione] | – |
| 3 nM | 80% | – | – | Cc1cc2cc(n1)-c1cnn(C)c1OC[C@H]1C[C@@H](CN3/C(=N/C2=O)Nc2ccc(N4CCN(C5CN(C6CCN(c7cc(F)c([C@H]8CCC(=O)NC8=O)c(F)c7)CC6)C5)C[C@H]4C)cc23)C1 [Example 148, (R)-3-(4-(4-(3-((R)-4-((7^1s,7^3S,E)-1^1,2^6-dimethyl-3-oxo-5^2,5^3-dihydro-1^1H,5^1H-9-oxa-4-aza-5(2,1)-benzo[d]imidazola-2(2,4)-pyridina-1(4,5)-pyrazola-7(1,3)-cyclobutanacyclononaphane-5^6-yl)-3-methylpiperazin-1-yl)azetidin-1-yl)piperidin-1-yl)-2,6-difluorophenyl)piperidine-2,6-dione] | – |
